Data on 90 compounds can be found in ChEMBL document CHEMBL3507680, “University of Dundee, Gates Library screen for HepG2 cell viability”.

Each structure is given as a SMILES string. Values joined by “and” are separate entries in the source; they are usually repeats but may differ in a detail not shown here. Identical values can stand only once. Where only a bound is given, the exact number is not on record here.

A short description of the first series: Human HepG2 cell viability dose-response assay. The series is classed as toxicity, cell-based.
Conditions: not given
With `O=C(NCCCN1CCCCC1)c1ccc(-n2ccc3ccccc32)s1`, the BOTTOM was -3.023 and -2.579; the HILLSLOPE was 5.041 and 5.956; the TOP was 103.2 and 102.3; the pXC50 is 5.01 and 4.975.
For `Cc1cccc(C)c1Nc1noc2c1CN(C(=O)c1cn(C)cn1)CC2`, the BOTTOM was -7.032 and -2.364; the HILLSLOPE is 1.548 and 1.741; the TOP is 100; the pXC50 is 4.986 and 4.918.
Take `CC(C)Nc1cc(-c2c[nH]nc2C2CCN(C(=O)C3CCC3)C2)ccn1` (stereo not given): the BOTTOM was 5.771 and 12.22; the HILLSLOPE was 3.68 and 3.705; the TOP is 97.15 and 97.9; the pXC50 is 6.593 and 6.589.
With `Cc1cnc(CCN(C)C(=O)c2cccc(N(C)C)c2)s1`, the BOTTOM amounted to 0, the HILLSLOPE was 0, the TOP is 0 and the pXC50 is less than 4.53.
On to `COCC(NC(=O)c1cn2ccsc2n1)c1ccnn1C` (stereo not given), for which the BOTTOM was 0, the HILLSLOPE was determined as 0, the TOP was 0 and the pXC50 was less than 4.53.

Another series can be described thus: Human HepG2 cell viability assay in 384 well format. The series is classed as toxicity, cell-based. On the set-up: dose 125 nL, time 70.5 hour; cytotoxicity at 70.5 h: concentration not given beside the values. The following applies: HepG2 cells, read-out: Inhibition.
Consider `O=C(NCCCN1CCCCC1)c1ccc(-n2ccc3ccccc32)s1`, for which the cytotoxicity at 70.5 h was determined as 64.9%.
For `Cc1cccc(C)c1Nc1noc2c1CN(C(=O)c1cn(C)cn1)CC2`, the cytotoxicity at 70.5 h was 75.1%.
Regarding `CC(C)Nc1cc(-c2c[nH]nc2C2CCN(C(=O)C3CCC3)C2)ccn1` (stereo not given), the cytotoxicity at 70.5 h amounted to 95.8%.
Still for that read-out and setting: as for `Cc1cnc(CCN(C)C(=O)c2cccc(N(C)C)c2)s1`, the figure is 60.6%.
On to `COCC(NC(=O)c1cn2ccsc2n1)c1ccnn1C` (stereo not given), for which the cytotoxicity at 70.5 h came to 97.2%.
Still for that read-out and setting: as for `Cc1nnc2n1CCN(CCOc1ccccc1C#N)C2`, the figure is 11.3%.
Still for that read-out and setting: as for `OC(CN1CCC(CNCc2ccccn2)CC1)c1ccccc1` (stereo not given), the figure is 1.35%.
`CCc1[nH]ncc1C(=O)N1CCOC(c2nc(C)n[nH]2)C1` (stereo not given): the cytotoxicity at 70.5 h was -2.8%.
On the same count and under the same terms, to `c1ccc(-n2ncc(CN3CCCC(Cn4cncn4)C3)n2)cc1` (stereo not given) belongs 0.701%; to `CC(=O)N1CCN(C(=O)NCCc2ccc(Cl)s2)CC1`, -4.33%.
On to `Cc1ccc(-c2nc(CN(Cc3cccs3)CC3CCCO3)no2)cc1` (stereo not given), for which the cytotoxicity at 70.5 h is -8.66%.
Consider `Cc1ccc(-c2nc(CC(=O)N3CCN(c4cnccn4)CC3)cs2)o1`, for which the cytotoxicity at 70.5 h was -4.05%.
Same read-out and setting: as for `NC(=O)CC1CCN(C(=O)NCCc2ccc(Cl)s2)CC1`, the figure is -4.12%.
Regarding `O=C(NCC(F)(F)F)C1CSCN1S(=O)(=O)c1ccc(F)cc1Cl` (stereo not given), the cytotoxicity at 70.5 h is -10.4%.
The same measure, in the same setting: to `O=C(NC1CCN(Cc2cccc3c2OCCO3)CC1)c1cccs1` belongs 0.406%.
On the same count and under the same terms, to `CCCN1CCC(CNC(=O)C2(c3cccc(C)c3)CC2)C1` (stereo not given) belongs 4.42%.
Still for that read-out and setting: to `Cn1ccnc1CN1CCOC(Cn2cccn2)C1` (stereo not given) belongs -1.69%; to `c1ccc(-n2cc(CN3CCCC3Cn3cncn3)nn2)cc1` (stereo not given), -1.22%.
`c1ccc(-n2cc(CN3CCCCC3Cn3cncn3)nn2)cc1` (stereo not given): the cytotoxicity at 70.5 h is -0.323%.
Take `c1cnnc(N2CCCC2CNc2ncnc3sccc23)c1` (stereo not given): the cytotoxicity at 70.5 h was -7.82%.
Same read-out and setting: as for `Cc1ccc(NC2CCN(C(=O)c3ccc(Cl)cc3F)CC2)nn1`, the figure is 23.4%.
Same read-out and setting: to `CNc1cc2c(nn1)CCN(C(=O)c1cc(C)n(C3CC3)c1C)C2` belongs 15.8%; to `CCNc1cc2c(nn1)CCN(C(=O)c1cc(C)n(C3CC3)c1C)C2`, -0.806%; to `CCOc1ccc(S(=O)(=O)NCc2cccnc2N(C)C)cc1`, 52.9%.
Turning to `COCCOc1ccc(NC(=O)N(C)Cc2ccsc2)cn1`, the cytotoxicity at 70.5 h was 3.32%.
Still for that read-out and setting: to `O=C(CN1CCC(c2ccnn2CCO)CC1)NCc1cccs1` belongs 18.4%; to `O=C(CN1CCC(c2ccnn2CCO)CC1)NCC1CC1`, 10.7%.
In the case of `CC(C)N(CC(N)=O)Cc1csc(Cc2ccccc2)n1`, the cytotoxicity at 70.5 h stood at 24.4%.
On to `CCC(CNC(=O)Nc1cnn(CC)c1)N1CCCC1` (stereo not given), for which the cytotoxicity at 70.5 h is -3.1%.
Same read-out and setting: to `Cc1nn(C)c(N2CCOCC2)c1CNC1CCN(C(C)(C)C)CC1` belongs 1.66%; to `Cc1csc(N2CCN(C(=O)CCn3cncn3)CC2)n1`, -7.97%; to `CCn1cc(CN2CCCN(C(=O)Cc3cccs3)CC2)cn1`, 28%.
As to `O=C1CC(N(C(=O)c2ccc3c(c2)CCC3)C2CC2)C(=O)N1` (stereo not given), the cytotoxicity at 70.5 h is 33.4%.
Take `COc1cc(C(=O)N(C2CC2)C2CC(=O)NC2=O)ccc1C` (stereo not given): the cytotoxicity at 70.5 h is -0.747%.
Same read-out and setting: as for `Cc1cccc(-c2noc(CN3CCCC(Cn4cncn4)C3)n2)c1` (stereo not given), the figure is 35.6%; as for `Cc1nccn1C1CCCN(C(=O)c2cc3ccccc3[nH]2)C1` (stereo not given), 42.8%; as for `Cc1nccn1C1CCCN(C(=O)c2cc(O)nc3ccccc23)C1` (stereo not given), 12.3%.
Regarding `Cc1nn(C)c(N2CCOCC2)c1CNC1CCc2ccccc2C1` (stereo not given), the cytotoxicity at 70.5 h is 16.6%.
Turning to `Cn1cc(C2CCCN2Cc2csc(C(C)(C)C)n2)cn1` (stereo not given), the cytotoxicity at 70.5 h turned out to be 25.7%.
Still for that read-out and setting: as for `Cn1cc(C2CCCN2Cc2csc(-c3ccsc3)n2)cn1` (stereo not given), the figure is -0.271%; as for `CS(=O)(=O)NCCCN1CCCC1c1ccccc1` (stereo not given), 20%.
Still for that read-out and setting: as for `Cc1cnn(CC2CCCN2Cc2nnsc2Cl)c1` (stereo not given), the figure is 31.9%; as for `O=C(c1ccc2c(c1)COC2)N1CCN(CC2CC2)CC1`, -7.78%.
`CCCc1cc(C(=O)N2CCCC(n3ccnc3C)C2)[nH]n1` (stereo not given): the cytotoxicity at 70.5 h was found to be 32.7%.
With `c1ncn(CC2CCCN(Cc3nc(C4CC4)no3)C2)n1` (stereo not given), the cytotoxicity at 70.5 h is 31.5%.
In the case of `COc1ccsc1C(=O)N1CCCC(n2nc(C)nc2C)C1` (stereo not given), the cytotoxicity at 70.5 h was 3.22%.
`CCCc1n[nH]c(C2CN(Cc3nnc(C4CC4)o3)CCO2)n1` (stereo not given): the cytotoxicity at 70.5 h stood at 8.7%.
Turning to `COc1ccc(CCN2CCCC2Cn2nc(C)nc2C)cc1` (stereo not given), the cytotoxicity at 70.5 h came out at 17.7%.
For the compound `Cc1ccoc1-c1nnc(CNCCn2cccn2)o1`, the cytotoxicity at 70.5 h was found to be 31.8%.
Turning to `CCc1n[nH]c(C2CN(C(=O)c3cc4c(s3)CCCC4)CCO2)n1` (stereo not given), the cytotoxicity at 70.5 h was 4.71%.
The same measure, in the same setting: to `CN1CCOC(CNCc2coc(-c3ccccc3)n2)C1` (stereo not given) belongs -0.149%.
As to `CN1CCOC(CNCCc2ccccn2)C1` (stereo not given), the cytotoxicity at 70.5 h is -1.1%.
`Cc1ccc(S(=O)(=O)NC(=O)c2cccc(OCC(N)=O)c2)s1`: the cytotoxicity at 70.5 h is -3.78%.
As to `COc1cccc(-n2c(C)cc(C(=O)O)c2C)c1`, the cytotoxicity at 70.5 h is -5.75%.
Regarding `CC1CCCN(C(=O)CCc2cccnc2)C1` (stereo not given), the cytotoxicity at 70.5 h is -3.28%.
`N#Cc1cnn(-c2ccc(C(=O)Nc3ccccn3)cc2)c1N`: the cytotoxicity at 70.5 h worked out at 25.3%.
The same measure, in the same setting: as for `COc1ccccc1C(O)CNC(=O)NCc1cccnc1OC` (stereo not given), the figure is 6.04%; as for `Cn1c(NCC(O)c2ccc(F)cc2F)c(C#N)c(=O)n(C)c1=O` (stereo not given), -5.92%.
In the case of `COc1ccccc1C(O)CNC(=O)Nc1ncccc1C` (stereo not given), the cytotoxicity at 70.5 h amounted to 7.49%.
On to `CC(NC(=O)NCCn1ccnc1)c1ccc2c(c1)NC(=O)CO2` (stereo not given), for which the cytotoxicity at 70.5 h was -0.375%.
On the same count and under the same terms, as for `NC(=O)c1ccc(S(=O)(=O)NC2CCN(Cc3ccccc3)C2=O)cc1` (stereo not given), the figure is -8.89%; as for `c1coc(-c2nnc(CN3CCOC(Cn4cccn4)C3)o2)c1` (stereo not given), 6.43%; as for `COc1ccc(NC(=O)c2ccc(-n3ncc(C#N)c3N)cc2)cn1`, 3.5%.
Same read-out and setting: to `Cc1cccc(C2(CNC(=O)CCN3C(=O)CCC3=O)CCCC2)c1` belongs 21%.
Regarding `CC(C)c1n[nH]c(C(=O)Nc2cc[nH]n2)c1Br`, the cytotoxicity at 70.5 h amounted to 7.8%.
With `COc1ccc(C2=CCN(C(=O)CN(C)CC(C)C#N)CC2)cc1` (stereo not given), the cytotoxicity at 70.5 h worked out at 44.4%.
The same measure, in the same setting: as for `CN1CCOC(CNCc2cccc(OCC(F)(F)F)c2)C1` (stereo not given), the figure is -1.74%; as for `CN1CCOC(CNCc2cccc(OCc3ccccn3)c2)C1` (stereo not given), -3.38%; as for `Cc1nc(C)n(CC2CCCN2CCOc2ccc(C#N)cc2)n1` (stereo not given), 6.36%.
Same read-out and setting: as for `Fc1ccc(-c2cnc(CN3CCCC3Cn3cccn3)o2)cc1` (stereo not given), the figure is -8.12%; as for `OC(CN1CCC(c2ccn[nH]2)CC1)c1cccc(F)c1` (stereo not given), -28.7%.
On the same count and under the same terms, as for `CS(=O)(=O)c1ccc(C(O)CN2CCC(c3ccn[nH]3)CC2)cc1` (stereo not given), the figure is -17.4%; as for `Cc1noc(CN2CCC(c3ccnn3CCO)CC2)n1`, -13.4%.
In the case of `CCCNC(=O)CNc1cc(C#N)ccc1OCC`, the cytotoxicity at 70.5 h stood at 14.1%.
Regarding `Cc1ccn(-c2ccc(C(=O)N3CCCC(C(N)=O)C3)cc2)n1` (stereo not given), the cytotoxicity at 70.5 h is -9.79%.
Still for that read-out and setting: to `CN(Cc1cnn(C)c1)C(=O)NCc1nnc2n1CCC2` belongs -25.4%; to `N#Cc1ccc(OCCCN2CCc3cncnc3C2)cc1`, -0.112%.
Same read-out and setting: as for `CC1=NN(c2ccc(C(=O)N3CCCC(n4ccnc4)C3)cc2)CC1` (stereo not given), the figure is -17.1%.
On to `Cc1cccc(NC2CCN(C(=O)Nc3cc(F)cc(F)c3)CC2)n1`, for which the cytotoxicity at 70.5 h turned out to be 42.8%.
On the same count and under the same terms, as for `Cn1cnc2c1CCN(CCCOc1ccc(C#N)cc1)C2`, the figure is -10.6%.
The same measure, in the same setting: to `Cc1cc(C2CCCN(CCCNS(C)(=O)=O)C2)n[nH]1` (stereo not given) belongs -25.3%; to `Cc1cc(C2CCCN(CCc3ccccn3)C2)n[nH]1` (stereo not given), -17%; to `Cc1noc(C(C)C)c1C(=O)NCC(c1cccc(F)c1)N(C)C` (stereo not given), -21.3%.
On the same count and under the same terms, as for `Cc1cnn(CC2CCCN2C(=O)CCc2nc3ccccc3[nH]2)c1` (stereo not given), the figure is -15.5%; as for `O=C(CCc1nccs1)N1CCN(c2ccccc2F)CC1`, 34.9%; as for `Cc1noc2ncc(C(=O)N3CCCC3c3cnn(C)c3)cc12` (stereo not given), -6.59%.
Regarding `Cc1ccc2nc(CNCCCOc3ccccc3)cc(O)c2c1` [UCSF924], the cytotoxicity at 70.5 h was -2.02%.

The same series, now with this note: hepg2, 70.5 h, 70.5 h.
In the case of `CC1=Nc2c(c(=O)[nH]n2C(C)C)C(c2ccsc2)S1` (stereo not given), the Inhibition was -5.291% and -4.016%.
On to `CC1=Nc2c(c(=O)[nH]n2C2CCCCC2)C(c2ccc(C(=O)O)cc2)S1` (stereo not given), for which the Inhibition was -14.53% and -17.54%.
For the compound `Cc1cc(NC(=O)C(C)Cn2cncn2)no1` (stereo not given), the Inhibition was 6.977% and -4.493%.
